# Measured values: patent US10933135B2, “Methods for the treatment of cardiac hypertrophy” (UNIVERSITY OF CINCINNATI, priority 2016, dated 2021)
# Values joined by “and” are separate entries in the source; they are usually repeats but may differ in a detail not shown here. Equal entries are not always repeated. “Also recorded” adds a separate entry of the source.
# Columns and labels:
# RCAN1 = assay: Expression of the NFAT target gene RCAN1 by qRT-PCR in NRVMs; format: cell-based, rat; conditions: PE treated
# Protocol: (§1) RNA was isolated using a Macherey-Nagel NucleoSpin RNA kit and cDNA was synthesized using a BioScript All-in-One cDNA Synthesis SuperMix (Biotool). Samples were run on Stratagene Mx3005P (Agilent Technologies) using SYBR Green qPCR Master Mix (Biotool) to assess levels of GAPDH, ANF (atrial natriuretic factor), and RCAN1 (Regulator of Calcineurin 1). Results were analyzed using the ΔΔCt method (K. J. Livak, T. D. Schmittgen, Analysis of relative gene expression data using real-time quantitative PCR and the 2(-Delta Delta C(T)) Method, Methods. 25 (2001) 402-408. doi:10.1006/meth.2001.1262, the entire disclosure of which is incorporated herein by this citation). Primers are as listed: […]
# ANF = ANF (hypertrophic marker gene) expression by qRT-PCR in NRVMs; format: cell-based, rat; conditions: vehicle+PE, 24 hr
# Protocol: as §1
# HuR = HuR nucleo-cytoplasmic translocation by immunostaining in NRVMs; format: cell-based, rat; conditions: for HuR cytoplasmic translocation, fluorescent intensity ratio: agonist alone (PE 10 μM or AngII 100 nM), within 15 minutes (printed 15 hr)
# Description: All antibodies were made up in 0.6% BSA in PBS. For wheat germ agglutinin (WGA) staining, a Texas Red-X conjugate was used per manufacturer's instructions (ThermoFisher). […]
# NFAT = assay: NFAT-luciferase reporter assay in NRVMs; format: cell-based, rat; conditions: for NFAT reporter activity, fold vs. vehicle control: 24 hours; for effect on basal NFAT activity: inhibitor at its IC50, without PE
# Protocol: NRVMs were transfected with 75 ng per well (in a 96-well plate) of NFAT-luciferase reporter plasmid acquired from AddGene (51941) (B. J. Wilkins et al., Calcineurin/NFAT coupling participates in pathological, but not physiological, cardiac hypertrophy, Circ. Res. 94 (2004) 110-118. doi:10.1161/01.RES.0000109415.17511.18, the entire disclosure of which is incorporated herein by this citation). 48 hours after transfection, cells were treated with 10 μM PE for 24 hours to induce NFAT reporter activity. To quantify luciferase reporter expression, cells were rinsed with sterile PBS and then lysed with 50 μL Cell Lysis Buffer (Promega) for 5 min at room temperature, followed by addition of 100 μL luciferase assay reagent (Promega); luminescence was read immediately on the BioTek Cytation 3 image reader. HuR inhibitors were previously identified by Wu et. al. (X. Wu et al., Identification and Validation of Novel Small Molecule Disruptors of HuR-mRNA Interaction, ACS Chem. Biol. (2015) 150317154550000-9. doi:10.1021/cb500851u. the entire disclosure of which is incorporated herein by this citation), and used here as described.
# [1] = test system: neonatal rat ventricular myocytes (NRVMs); assay: Hypertrophic cell growth of NRVMs, cell area by WGA staining; format: cell-based; conditions: 10 μM PE for 24 hr, vs vehicle treated control cells
# Description: Neonatal rat ventricular myocytes (NRVMs) were isolated using collagenase digestion and adhesion differential from fibroblasts as described ([…]. Moore-Morris, S. Lange, Isolation and culture of neonatal mouse cardiomyocytes, J Vis Exp. (2013) e50154-e50154. doi:10.3791/50154, the entire disclosure of which is incorporated herein by this citation). Briefly, Sprague Dawley neonatal rats (1-2 days old) (Taconic) were decapitated and the hearts were isolated. Following removal of the atria, the ventricles were cut into small pieces and digested first in 0.05% trypsin/EDTA (Corning) overnight, then in collagenase II (Gibco) for 30 minutes. Cells were then spun at 100×g followed by a 40 minute pre-plating process on non-treated plates to allow the fibroblasts to adhere. The non-adherent NRVMs were then transferred to cell culture-treated dishes in MEM alpha media (Gibco) with 10% FBS. […] All slides were imaged with the BioTek Cytation 3 image reader and quantitative assessment of HuR translocation was measured as the ratio of cytoplasmic to nuclear fluorescent intensity (adjusted for mean background fluorescence and integrated area) using ImageJ.
# [2] = test system: pressure overload (aortic constriction) mouse model of heart failure; assay: Aortic constriction (TAC) pressure overload mouse model of cardiac hypertrophy and heart failure; format: in vivo; conditions: TAC mice
# Protocol: FIG. 7A-C. KH-3 reduces ventricular dilation and improves ejection fraction in a pressure overload (aortic constriction) mouse model of heart failure. Mice (N=10) were subjected to aortic constriction (TAC) to induce cardiac hypertrophy and heart failure. After week 4, they were randomized to receive either KH-3 (50 mg/kg 3×/week) or Vehicle (5 mice to each group). KH-3 is a small molecule inhibitor of HuR-mRNA interaction that is available from.
# FIG. 8A-C. KH-3 reduces ventricular dilation and improves ejection fraction in a pressure overload (aortic constriction) mouse model of heart failure.
# HuR-RNA binding = HuR-RNA binding (Homo sapiens, UniProt Q15717); assay: Plasmonic nanoparticle LSPR assay of HuR-RNA binding; conditions: gold nanoparticle arrays, target RNA SEQ ID NO 7, recombinant HuR protein
# Protocol: As shown schematically in FIG. 9A-B, a pattern for either microfluidic channels or a spot plate is first made on the substrate using photolithography. Next, the hole mask procedure is carried out on top of the patterned photoresist to make the desired nanoparticle array. Briefly, this procedure involves spin coating a layer of poly(methylmethacrylate) (PMMA) followed by a layer of poly(diallyldimethylammonium chloride) (PDDA). Next, polystyrene spheres of a desired size are drop-coated onto the top of the polymer layers and a layer of 5 nm of gold is deposited over the whole assembly. After removal of the polystyrene spheres by tape-stripping, the masks are subjected to oxygen plasma etching to generate holes the same size as the polystyrene spheres. Metals are then deposited into these holes and in the last step, both the PMMA/PDDA polymer mask and the photoresist are removed using acetone, to create nanoparticle arrays in a desired pattern on the substrate. […] The PDMS layer was used to create the channels for the microfluidic devices and to prevent solution migration from spot to spot in the spot plates.
# Next a target RNA strand containing a DNA hybridizing region, which binds via base pair matching with the ssDNA on the nanoparticle, and a hairpin loop containing a HuR target binding site. […] Last, the HuR protein is added and binds to its target site within the RNA hairpin loop. […]
# PKC = PKC substrate phosphorylation in NRVMs; format: cell-based, rat; conditions: data not shown
# [3] = 50 mg/kg 3×/week from week 4, vs Vehicle
# [4] = inhibitor at its IC50 simultaneously with PE
# Chain of HuR-RNA binding (Q15717 whole entry): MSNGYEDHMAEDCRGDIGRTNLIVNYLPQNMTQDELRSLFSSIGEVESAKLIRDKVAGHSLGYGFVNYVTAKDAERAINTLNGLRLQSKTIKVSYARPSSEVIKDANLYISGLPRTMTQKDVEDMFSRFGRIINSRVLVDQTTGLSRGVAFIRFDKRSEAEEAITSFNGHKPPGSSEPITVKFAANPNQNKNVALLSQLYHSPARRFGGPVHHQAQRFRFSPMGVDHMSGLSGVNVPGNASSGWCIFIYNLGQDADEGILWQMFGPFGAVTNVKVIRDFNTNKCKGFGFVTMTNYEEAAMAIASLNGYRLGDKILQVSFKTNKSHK
compound,measurement,setting,value
"CNC[C@H](O)c1cccc(O)c1 [PE, phenylephrine]",RCAN1 expression fold-induction,RCAN1,4.43±0.77 fold-induction
same,ANF expression fold-induction,ANF,5.4±1.4 fold-induction
same,"HuR translocation, ratio of cytoplasmic to total cell fluorescent intensity","HuR; 24 hr PE, vehicle control 0.71±0.04",1.82±0.08
same,"HuR cytoplasmic translocation, fluorescent intensity ratio",HuR; vehicle control 0.71±0.04,1.05±0.06
same,"NFAT reporter activity, fold vs. vehicle control",NFAT; PE alone 10 μM,5.02±0.98 fold
same,fold increase in cell area/size,[1],1.29±0.08 fold and 1.39±0.07 fold
CC(C)(C)c1ccc(S(=O)(=O)Nc2ccc3sc(/C=C/C(=O)NO)cc3c2)cc1 [KH-3],cardiac hypertrophy as heart weight to body weight,[2],strong trend toward a reduction in cardiac hypertrophy
same,cardiac hypertrophy as heart weight to tibia length ratio,[2],strong trend toward a reduction in cardiac hypertrophy
same,left ventricle (LV) diameter,[2]; [3],blunts further increases
same,left ventricle end diastolic volume (LV-EDV),[2]; [3],preventing further increases
same,left ventricle end systolic volume (LV-ESV),[2]; [3],preventing further increases
same,cardiac function as measured by ejection fraction,[2]; pressure overload-induced hypertrophy,strong trend toward improving cardiac function
COc1ccc(C(CC(=O)N2CCCC2)c2c(OC)cc(OC)c3c(-c4ccccc4)cc(=O)oc23)cc1 (centres unmarked) [CMLD-2],effect on basal NFAT activity,NFAT,no significant effect
same,"NFAT reporter activity, fold vs. vehicle control",NFAT; [4],1.30±0.14 fold
"angiotensin II [AngII, angiotensin receptor AT1 agonist]","HuR cytoplasmic translocation, fluorescent intensity ratio",HuR; vehicle control 0.71±0.04,1.06±0.04
CCN(CC)C(=O)CC(c1cc(OC)c(OC)c(OC)c1)c1c(OC)cc(OC)c2c(-c3ccccc3)cc(=O)oc12 (centres unmarked) [CMLD-1],leftward LSPR shift (disruption of HuR-RNA binding),HuR-RNA binding,10 nm
same,effect on basal NFAT activity,NFAT,no significant effect
same,"NFAT reporter activity, fold vs. vehicle control",NFAT; [4],1.19±0.30 fold
COc1ccc2c(c[n+](C)c3c4cc5c(cc4ccc23)OCO5)c1OC [chelerythrine],effect on PE/AngII-mediated HuR translocation,HuR; PKC inhibitor 10 μM,had no effect on HuR translocation; also recorded: shows a trend to enhance HuR translocation
same,PKC substrate phosphorylation,PKC,a reduction of PKC substrate phosphorylation
C[S+]([O-])c1ccc(-c2nc(-c3ccncc3)c(-c3ccc(F)cc3)[nH]2)cc1 (centres unmarked) [SB203580],"HuR translocation, fluorescent intensity ratio",HuR; p38 inhibitor (10 μM) + AngII,0.76±0.07
same,"HuR translocation, fluorescent intensity ratio","HuR; p38 inhibitor (10 μM) + PE, PE alone 1.05±0.06",0.68±0.08
CCCCCCCCCCCCCC(=O)O[C@@H]1[C@@H](C)[C@@]2(O)[C@@H](C=C(CO)C[C@]3(O)C(=O)C(C)=C[C@@H]23)[C@@H]2C(C)(C)[C@]12OC(C)=O [PMA],HuR translocation after direct PKC activation,HuR; 2 μM,lack of HuR translocation
